From patent US5532258A, “H2 -receptor antagonist thiazoles” (Fujisawa Pharmaceutical Co., Ltd., priority 1991, dated 1996)

What was measured:
Gastric secretion [1] = assay: Test C (Gastric secretion from lumen perfused stomach in anesthetized rats); assay type: in vivo, Male Sprague-Dawley rats; details: 1 mg/kg intravenously, histamine (3 mg/kg/hr) i.v. stimulation
Experimental: Test C (Gastric secretion from lumen perfused stomach in anesthetized rats):
Male Sprague-Dawley rats weighing about 250 g were used. Rats were deprived of food but allowed free access to water for 24 hours. The animals were anesthteized with 1.25 g/kg urethane intraperitoneally. The abdomen was opened and the gastric lumen was perfused with saline throughout the experiment. The perfusate was titrated continuously against 25 mM sodium hydroxide to maintain the perfusate solution at pH 7.0. Gastric secretion was stimulated by intravenous infusion with histamine (3 mg/kg/hr). After reaching plateau, test compound (1 mg/kg) was given intravenously at a volume of 2 ml/kg. Effect of drug was expressed as maximal inhibition of acid output calculated by the amount of sodium hydroxide required.

stress ulcer = assay: Test B (Inhibition of stress ulcer); assay type: in vivo, male Sprague-Dawley rats; details: rats; 32 mg/kg orally just before stress; restraint in water bath 22° C. for 7 hours; vs control group
Experimental: Test B (Inhibition of stress ulcer):
Five male Sprague-Dawley rats, aged 7 weeks, were fasted but allowed free access to water for 24 hours. Animals were placed in a restraint cage and immersed to a level of the xiphoid in a water bath kept 22° C. for 7 hours. Each of the test compounds (32 mg/kg) suspended in 0.1% methylcellulose solution was administered orally just before the stress subjection. Animals were sacrificed and stomachs were removed. After fixing with 2% formalin, stomachs were opened along the greater curvature and area of ulcers was measured. Percentage inhibition was calculated by comparing the mean area of ulcers (mm^2) in the test group with that in the control group.

Gastric secretion [2] = assay: Test A (Gastric secretion in Heidenhain pouch dogs); assay type: in vivo, Beagle dogs; details: 3.2 mg/kg orally, tetragastrin (10 μg/kg/hr) i.v. stimulation, 3 hours
Experimental: Test A (Gastric secretion in Heidenhain pouch dogs):
Beagle dogs, weighing about 8-13 kg, were used for the study on gastric secretion. The animals were surgically provided with a vagally denervated Heidenhain pouch. One month or more later, the dogs were fasted overnight. Gastric secretion was stimulated by an intravenous infusion of tetragastrin (10 μg/kg/hr). Gastric juice was collected at 15 minutes intervals. After the secretion plateau had been established, test compound (3.2 mg/kg) suspended in 0.1% methyl cellulose solution was administered orally. Gastric juice was collected at 15 minutes intervals over 3 hours period. Acid concentration was determined by titrating an aliquot against 0.1N sodium hydroxide using automatic titrator (Hiranuma RAT-11 Type). Total acid output was calculated by multiplying the volume of gastric juice by acid concentration, and percentage inhibition was calculated by comparing total acid output before adminstration of test compound with that after administration of test compound.

NC(=O)NCc1cccc(-c2csc(N=C(N)N)n2)c1 [Test Compound (a), 4-(3-Ureidomethylphenyl)-2-(diaminomethyleneamino)thiazole]
Inhibition (%), maximal inhibition of acid output (Gastric secretion [1]): 99%

CCNC(N)=Nc1nc(-c2cccc(CNC(C)=O)c2)cs1 [Test Compound (c), 4-(3-Acetylaminomethylphenyl)-2-[[(amino)(ethylamino)methylene]amino]thiazole]
Inhibition (%) of area of ulcers (stress ulcer): 88.1%

CNC(N)=Nc1nc(-c2cccc(CNC(C)=O)c2)cs1 [Test Compound (b), 4-(3-Acetylaminomethylphenyl)-2-[[(amino)(methylamino)methylene]amino]thiazole]
Inhibition (%) of total acid output (Gastric secretion [2]): 88.1%
